# Measured values: US9328118B2, “Nitrogen-containing bicyclic aromatic heterocyclic compound” (ASTELLAS PHARMA INC., priority 2012, dated 2016)
# Columns and labels:
# [1] = tested on: MHC class II expression in peripheral blood B cells; experiment: Ex vivo MHC class II expression inhibitory effect using mouse peripheral blood after oral administration; assay type: in vivo, C57BL/6 mice; conditions: oral 1 mg/kg, blood collected after 3 hours, LPS 15 hours
# Protocol: Test Example 3 Evaluation of Ex Vivo MHC Class II Expression Inhibitory Effect Using Mouse Peripheral Blood
# The expression inhibitory effect of MHC class II molecules was evaluated in an ex vivo system.
# The test compound was orally administered into C57BL/6mice, and the inhibitory effect with respect to the increased expression of MHC class II in B cells in peripheral blood after oral administration was examined. That is, 10 mL/kg of the test compound dissolved in a vehicle (30% propylene glycol solvent (propylene glycol:cured castor oil (HCO40):Tween 80=4:2:1)/HCl (2 equivalents with respect to the test compound)/water) was orally administered (dose: 0.1 mg/kg, 0.3 mg/kg, 1 mg/kg, or 3 mg/kg) to a C57BL/6mice, and the peripheral blood was collected after 3 hours. 10 μL of RPMI 1640 medium (including 5×10^−5 M of 2-mercaptoethanol, 50 IU/mL of penicillin, and 50 μg/mL of streptomycin) or 10 μL of LPS adjusted with the medium such that the final concentration becomes 100 μg/mL was added to 90 μL of the peripheral blood, and culture was performed at 37° C. for 15 hours in 5% CO2. After culturing, the cells were stained at 4° C. for 30 minutes with FITC-labeled anti-mouse I-A/I-E antibody (BD BIOSCIENCE 553623) and PE-labeled B220 antibody (BD BIOSCIENCE 553090), and hemolysis and fixation were performed at 37° C. for 10 minutes using a buffer (BD BIOSCIENCE Phosflow Lyse/Fix Buffer 558049). After washing, using a flow cytometry system (FACSCanto II, manufactured by BD BIOSCIENCE), an expression level of MHC class II on a B220 positive B cell surface was measured by using a fluorescence intensity of FITC (hereinafter, referred to as MFI) as an indicator. The difference between a MFI at the time of stimulation of LPS and a MFI at the time of unstimulation of LPS was set to a ΔMFI, a ΔMFI of a mouse in which 10 mL/kg of only vehicle was administered was set to 1, and the inhibition rate of ΔMFI by the test compound administration was calculated.
# [2] = tested on: MHC class II expression in B220 positive B cells of mouse spleen cells; experiment: In vitro MHC class II expression inhibitory effect using mouse spleen cells (LPS-stimulated B cells, flow cytometry); assay type: cell-based, C57BL/6 mice; conditions: B-cell, C57BL/6 spleen cells, LPS 2 μg/mL, 48 hours, B220 positive B cells, read-out: IC50 value of MHC class II expression inhibition (Data 2)
# Protocol: Test Example 2 Evaluation of In Vitro MHC Class II Expression Inhibitory Effect Using Mouse Spleen Cells (Cell Evaluation System)
# In antigen-presenting cells, the inhibition of cathepsin S inhibits the expression of MHC class II molecules. […] For an increased expression of MI-IC class II in B cells, the inhibitory effect of the compound represented by formula (I) was examined.
# First, spleen cells collected from C57BL/6 mice were seeded in a 96-well plate so as to be a 1×10^5 cells/well, then, 5-fold dilution of 10 mM DMSO solution of the test compound was serially performed with RPMI 1640 medium (including 10% fetal bovine serum (FCS), 5×10^−5 M 2-mercaptoethanol, 50 IU/mL penicillin and 50 μg/mL streptomycin) nine times such that the final concentration becomes 0.026 nM to 10 μM, and the resultant products were added thereto (the final DMSO concentration was 0.1%). At the same time, LPS (Sigma L4005) was added to the wells such that the final concentration becomes 2 μg/mL, and culture was performed at 37° C. for 48 hours in 5% CO2. After culturing, the cells were stained at 4° C. for 20 minutes with PE-labeled streptavidin (BD BIOSCIENCE 554061) and biotin-labeled YAe antibody (EBIOSCIENCE 13-5741-85) together with FITC-labeled anti-mouse B220 antibody (BD BIOSCIENCE 553088), and an expression level (fluorescence intensity of YAe-biotin/streptavidin-PE) of MHC class II to which Ea peptide in B220 positive B cells was bonded was measured using a flow cytometry system (Guava EasyCyte Plus System, manufactured by Millipore Corporation). A value at the time of unstimulation of LPS in which the test compound was not added and a value at the time of stimulation of LPS in which the test compound was not added were set to 100% inhibition and 0% inhibition, respectively, then, an inhibition rate at each concentration was determined, and IC50 values were calculated by a linear regression method. In the Table, Ex represents Example compound No., and Data 2 represents an IC50 value (nM).
# [3] = tested on: SLE spontaneous model; experiment: SLE onset inhibitory effect in spontaneous model using NZB/W F1 mouse; assay type: in vivo, NZB/W F1 female mice; conditions: oral 0.3 mg/kg once a day from 20 weeks old, at 41 weeks old
# Protocol: NZB/W F1 mice are used as a model of SLE that spontaneously develops a condition close to humans ([…] et al, Proceedings of the university otago medical school (New Zealand), 1961, Vol. 39, p. 3; Advances in Immunology, 1985, Vol. 37, p. 269-390; Perry et al, Journal of Biomedicine and Biotechnology, 2011, Article ID 271694, Review Article). […] At this time, an individual having greater than 100 mg/dL of urine protein was excluded. […] Furthermore, a pathology evaluation of kidney tissue in the above Test 5 was performed. […] In accordance with histological classification of lupus nephritis by WHO, a histopathological image was classified into Class I (normal glomerulus), Class II (mesangium lesion), Class III (focal segmental glomerulonephritis), Class IV (diffuse glomerulonephritis), and Class VI (progressive sclerosing lupus nephritis).
# [4] = tested on: OVA specific IgG antibody titer; experiment: Antibody production inhibitory effect in mouse OVA-induced antibody production model; assay type: in vivo, BALB/c male mice; conditions: oral 0.3 mg/kg daily Day 0 to Day 14, titer at Day 14
# Protocol: Test Example 4 Evaluation of Antibody Production Inhibitory Effect in Mouse OVA-Induced Antibody Production Model
# Evaluation of an antibody production inhibitory effect in vivo was performed.
# The BALB/c male mice were sensitized by intraperitoneal administration of 200 μL of an emulsion consisting of 100 μg of ovalbumin (OVA) (SIGMA A5503) and 100 μL of a complete Freund's adjuvant (CFA) (DIFCO 231131) (Day 0), and a week after that, the mice were sensitized by intraperitoneal administration of 200 μL of an emulsion consisting of 50 μg of OVA and 100 μL of an incomplete Freund's adjuvant (IFA) (DIFCO 263910) (Day 7). The test compound dissolved in a vehicle (30% propylene glycol solvent (propylene glycol:HCO40:Tween 80=4:2:1)/HCl (2 equivalents with respect to the test compound)/water) was orally administered (dose: 0.3 mg/kg, 1 mg/kg, or 3 mg/kg) at 10 mL/kg/day from Day 0 to Day 14, and an OVA specific IgG antibody titer in blood plasma at Day 14 was evaluated. Measurement of antibody titer was carried out using a blood plasma sample which was diluted 40,000 times by an ELISA method, and the antibody titer was represented as a ratio with respect to control blood plasma. An antibody titer of a mouse to which the vehicle was orally administered at 10 mL/kg/day from Day 0 to Day 14 was set to 0% inhibition, an antibody titer of a normal mouse to which the vehicle was orally administered at 10 mL/kg/day from Day 0 to Day 14 and which was not sensitized with OVA was set to 100% inhibition, and the inhibition rate at the time of the test compound administration was calculated.
structure (smiles),measurement,setting,value
"CCN1CCC(CCOc2ncc(-c3nc(C#N)nc4c3ncn4C)cc2C(F)(F)F)CC1 [Example 39, 6-{6-[2-(1-ethylpiperidin-4-yl)ethoxy]-5-(trifluoromethyl)pyridin-3-yl}-9-methyl-9H-purine-2-carbonitrile]",inhibition rate of ΔMFI (increased expression of MHC class II in peripheral blood B cells),[1],61±1.2%
same,IC50,[2],0.61 nM
same,average anti-dsDNA IgG antibody titer,"[3]; 10 cases, ELISA","9,263±1,700 mU/mL"
same,urine protein,[3]; all individuals of 10 cases,≤ 100 mg/dL
same,inhibition of OVA specific IgG antibody titer in blood plasma,[4],74±8%
